The NIST ThermoML archive (doi:10.1016/j.jct.2005.03.006)

Experiment: wn = mass fraction of the nth substance listed
Details: Liquid, Buoyancy - hydrostatic balance

c1ccccc1 [benzene] + CO
mass density [kg/m3]
Details	100 kPa	5000 kPa	9900 kPa	19700 kPa	29500 kPa	39300 kPa	49100 kPa	58900 kPa
287.65 K, w2 = 0.5	840.5	844.4	847.9	855.8	863	869.5	875.2	881
291.15 K, w2 = 0.25	857.7	862	866.1	873.8	880.6	887.3	893.2	899.1
292.65 K, w2 = 0.75	815.2	819.9	824.2	832.1	839.2	846.4	852.5	858.7
297.35 K, w2 = 0.5	830.9	835.6	839.9	847.7	855	862.1	868	874
313.66 K, w2 = 0.25	835	840.1	844.8	852.9	860.8	868.4	875.1	881
314.15 K, w2 = 0.75	795.6	800.3	804.7	813	821.1	828.8	835.9	–
322.15 K, w2 = 0.5	806.5	811.8	817	825.3	833.4	841.4	848.2	855.1
337.37 K, w2 = 0.25	–	816.2	822.1	831	840	848.3	856	862.7
338.35 K, w2 = 0.75	–	776.6	781.6	791	800.2	809	817.1	823.9
341.35 K, w2 = 0.5	–	791.4	797.7	807.3	816.2	825.1	832.9	840
356.15 K, w2 = 0.5	–	775.2	781.8	792	802.8	811.7	819.8	827.6
361.64 K, w2 = 0.25	–	789.2	796.5	806.8	817.1	826.9	835	842.7
361.65 K, w2 = 0.75	–	750.9	757	767.9	778.4	788.1	797	804.9
376.65 K, w2 = 0.5	–	750.9	758.2	770.8	784	793.2	801.8	–
383.15 K, w2 = 0.75	–	724.9	732.5	745	757.4	768.2	777.8	786.9
383.16 K, w2 = 0.25	–	764.1	772.6	784.4	796.3	807.6	815.9	824.8
402.15 K, w2 = 0.5	–	718.4	726.6	742.7	757.7	769	778.9	788.6
406.65 K, w2 = 0.75	–	693.4	703.3	718.9	733.3	745	755.9	766.2
407.66 K, w2 = 0.25	–	732	741.5	757.6	771.3	784.6	793.3	803.2
428.15 K, w2 = 0.5	–	678.8	689.5	710.6	728.7	742.1	753.2	764.7
429.26 K, w2 = 0.25	–	699.7	710.6	731.1	748.2	762.9	773	783.8
431.35 K, w2 = 0.75	–	656.6	667.9	689.5	706.7	720	732.5	744.1
453.2 K, w2 = 0.25	–	659.6	673.3	699.7	720.8	736.9	748.8	760.9
453.65 K, w2 = 0.5	–	634	649.1	676.5	697.6	714	727	739.3
458.5 K, w2 = 0.75	–	605.4	624.7	653.6	674.8	690.2	705	718.3
475.26 K, w2 = 0.25	–	616.4	639.6	669.8	694.3	710.8	725.7	739.4
477.35 K, w2 = 0.75	–	558.2	590.9	628.5	652.3	669.8	686.2	699.9
496.65 K, w2 = 0.75	–	483.6	549.1	601.8	628.5	647.8	665.6	680.8
497.15 K, w2 = 0.5	–	520.7	570	617.6	643.1	661.9	680.8	694.6
497.17 K, w2 = 0.25	–	566.6	598.9	639	664.5	684.2	701.6	717
